Key:
ϕDI Dut-Stl complex [1] = molecular target: T1, ϕDI Dut-Stl complex (Staphylococcus aureus, UniProt A0A2D0TC87); assay: Native-PAGE, disruption of Dut-Stl complex; type: binding; conditions: equimolar Dut and Stl; dUMP up to 1 mM
T1 construct: His-tagged Dut and purified Stl, E. coli; 1:1 molar ratio of Dut and Stl; with SaPIbov1 master repressor Stl (Staphylococcus aureus pathogenicity island SaPIbov1)

[2] = molecular target: T2, ϕDI Dut (dimeric dUTPase) (Staphylococcus aureus, UniProt A0A2D0TC87); assay: X-ray crystallography, […] Å; type: binding; conditions: Mg2+; active site, two Mg2+ per nucleotide
T2 construct: His-tagged, pET-28a, E. coli BL21(DE3); homodimer; eight helices, residues 7-163 in helices

ϕDI Dut-Stl complex [3] = molecular target: T1, ϕDI Dut-Stl complex; assay: Native-PAGE, disruption of Dut-Stl complex; conditions: equimolar Dut and Stl (17 μM); 4°C electrophoresis; competes with Stl binding to Dut
Excerpt: Native-PAGE, disruption of Dut-Stl complex on ϕDI Dut-Stl complex | competing away the dimeric ϕDI Dut from binding to the SaPI Stl repressor, with an IC50

[4] = molecular target: T2, ϕDI Dut (dimeric dUTPase); assay: isothermal titration calorimetry; type: binding; conditions: 50 mM HEPES pH 7.5, 250 mM NaCl, 5 mM MgCl2, 25°C; single-site model; read-out: dissociation constant
Excerpt: isothermal titration calorimetry on ϕDI Dut (dimeric dUTPase) | used to calculate the dissociation constant of ϕDI and ϕDI^A73L Duts against dUPNPP

[5] = system: T3, ϕNM1 Dut (dimeric dUTPase); assay: Malachite Green phosphate assay; type: biochemical, Staphylococcus phage phiNM1; conditions: 3-400 μM dUTP; 25°C; free Dut, no Stl; decimal comma (17.5)
T3 construct: His-tagged, pET-28a, E. coli BL21(DE3)
Excerpt: Malachite Green phosphate assay on ϕNM1 Dut (dimeric dUTPase)

[6] = system: T4, ϕO11 Dut (dimeric dUTPase); assay: Malachite Green phosphate assay; type: biochemical, Staphylococcus phage phiO11; conditions: 3-400 μM dUTP; 25°C; free Dut, no Stl; decimal comma (17.4)
T4 construct: His-tagged, pET-28a, E. coli BL21(DE3); not the trimeric Dut of phage ϕ11
Excerpt: Malachite Green phosphate assay on ϕO11 Dut (dimeric dUTPase)

[7] = system: T5, ϕDII Dut (dimeric dUTPase); assay: Malachite Green phosphate assay; type: biochemical, Staphylococcus phage phiDII; conditions: 3-400 μM dUTP; 25°C; free Dut, no Stl; decimal comma (11.1)
T5 construct: His-tagged, pET-28a, E. coli BL21(DE3)
Excerpt: Malachite Green phosphate assay on ϕDII Dut (dimeric dUTPase)

[8] = system: T6, ϕ55 Dut (dimeric dUTPase); assay: Malachite Green phosphate assay; type: biochemical, Staphylococcus phage 55; conditions: 3-400 μM dUTP; 25°C; free Dut, no Stl; decimal comma (13.6)
T6 construct: His-tagged, pET-28a, E. coli BL21(DE3)
Excerpt: Malachite Green phosphate assay on ϕ55 Dut (dimeric dUTPase)

[9] = molecular target: SaPIbov1-encoded Stl repressor (Staphylococcus aureus (pathogenicity island SaPIbov1)); assay: native gel or EMSA

O=c1ccn([C@H]2C[C@H](O)[C@@H](COP(=O)(O)O)O2)c(=O)[nH]1 [dUMP]
Native-PAGE, disruption of Dut-Stl complex (ϕDI Dut-Stl complex [1]): only a weak reduction in ϕDI Dut-Stl binding was observed

O=c1ccn([C@H]2C[C@H](O)[C@@H](COP(=O)(O)NP(=O)(O)OP(=O)(O)O)O2)c(=O)[nH]1 [dUPNPP, 2-Deoxyuridine-5-[(α,β)-imido]triphosphate]
X-ray crystallography, 2.1 Å [2]: structure of the ϕDI Dut in complex with dUPNPP | IC50 (ϕDI Dut-Stl complex [3]): 13.9 µM | Kd [4]: 4.9 µM

O=c1ccn([C@H]2C[C@H](O)[C@@H](COP(=O)(O)OP(=O)(O)OP(=O)(O)O)O2)c(=O)[nH]1 [dUTP]
Km [5]: 17.5 µM | Km [6]: 17.4 µM | Km [7]: 11.1 µM | Km [8]: 13.6 µM

dimeric dUTPase (Dut) from S. aureus phage ϕDI (enzyme)
stoichiometry N (Dut:Stl molar ratio) [9]: 1

dimeric dUTPase (Dut) from S. aureus phage ϕO11 (enzyme)
stoichiometry N (Dut:Stl molar ratio) [9]: 1

Reference: paper PMC5608427, “Convergent evolution involving dimeric and trimeric dUTPases in pathogenicity island mobilization” (PLoS Pathogens, 2017)
